Series [1] deals with T1, CrT (Homo sapiens, UniProt P48029).
T1 construct: swapped with the corresponding fragment from the human full-length open reading frame; expressed in transfected cells; host or cells: HL-1 murine atrial cardiomyocyte line, transient transfection with pcDNA3.1(-) human CrT cDNA
T1 sequence (P48029 1-635): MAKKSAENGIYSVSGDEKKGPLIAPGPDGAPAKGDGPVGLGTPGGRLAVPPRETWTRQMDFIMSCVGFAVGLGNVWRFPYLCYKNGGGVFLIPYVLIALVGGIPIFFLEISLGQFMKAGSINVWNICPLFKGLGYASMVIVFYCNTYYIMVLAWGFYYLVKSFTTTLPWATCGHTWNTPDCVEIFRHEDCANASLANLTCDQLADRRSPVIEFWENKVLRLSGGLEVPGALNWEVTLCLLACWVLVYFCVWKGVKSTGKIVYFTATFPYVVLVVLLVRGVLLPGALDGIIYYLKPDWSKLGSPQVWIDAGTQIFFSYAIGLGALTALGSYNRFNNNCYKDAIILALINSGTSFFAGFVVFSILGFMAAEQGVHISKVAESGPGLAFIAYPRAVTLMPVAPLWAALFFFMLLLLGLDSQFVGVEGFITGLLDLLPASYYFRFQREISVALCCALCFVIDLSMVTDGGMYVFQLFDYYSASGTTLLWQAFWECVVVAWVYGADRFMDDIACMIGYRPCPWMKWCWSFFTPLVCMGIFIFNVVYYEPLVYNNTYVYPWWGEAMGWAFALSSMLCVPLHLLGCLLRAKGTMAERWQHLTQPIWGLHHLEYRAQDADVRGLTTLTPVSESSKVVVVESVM
The series is described as follows: 14C-Cr transport in HL-1 cells expressing the human CrT protein (dose-response, time course, kinetics). It is filed as cell-based. The conditions noted are these: HL-1 cells expressing human CrT, Michaelis-Menten, no DOX. On the procedure:
The cultures were maintained in a humidified atmosphere of 5% CO2 at 37° C.
(§1) Cells used for Cr transport assays were cultured in 24-well plates coated with fibronectin and gelatin. The wells were washed twice with room temperature choline buffer (150 mmol/L choline chloride; 1 mmol/L CaCl2; 5 mmol/L MgCl2; 2 mmol/L KCl; and 5 mmol/L HEPES-Tris, pH 7.5).
(§2) The cells were lysed with 500 mmol/L NaOH and heated to 80° C. for 30 min. 100 μl of cell lysate was subjected to scintillation counting using a BECKMAN COULTER LS 6500 scintillation counter. Cr transport was normalized to the protein concentration measured using the bicinchoninic acid (BCA) protein assay (PIERCE BIOTECHNOLOGY, Rockford, Ill.).

Another series concerns the target T2, Cr transport (Homo sapiens, UniProt P48029).
T2 sequence (P48029 1-635): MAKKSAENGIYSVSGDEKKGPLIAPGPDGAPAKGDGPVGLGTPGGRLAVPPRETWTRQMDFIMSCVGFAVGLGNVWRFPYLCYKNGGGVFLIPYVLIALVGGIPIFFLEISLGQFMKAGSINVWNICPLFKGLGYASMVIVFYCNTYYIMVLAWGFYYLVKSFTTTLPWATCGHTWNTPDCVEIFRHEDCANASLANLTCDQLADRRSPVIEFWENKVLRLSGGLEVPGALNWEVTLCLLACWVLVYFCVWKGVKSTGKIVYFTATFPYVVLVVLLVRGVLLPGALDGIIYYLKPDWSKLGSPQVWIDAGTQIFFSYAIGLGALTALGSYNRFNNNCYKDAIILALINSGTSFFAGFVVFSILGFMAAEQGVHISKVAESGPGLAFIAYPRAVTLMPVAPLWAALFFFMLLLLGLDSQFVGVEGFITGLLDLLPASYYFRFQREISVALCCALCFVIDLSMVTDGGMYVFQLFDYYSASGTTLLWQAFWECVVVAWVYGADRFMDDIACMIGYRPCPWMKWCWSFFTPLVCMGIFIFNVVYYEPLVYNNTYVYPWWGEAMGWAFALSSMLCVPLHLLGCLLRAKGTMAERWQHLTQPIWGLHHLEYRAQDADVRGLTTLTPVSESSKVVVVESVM
To be noted: Dai W. et al., 1999; read-out: IC50 for inhibition of Cr transport; cited from earlier work.

The target of series [2] is T1, CrT. The series is described as follows: DOX competition assay: 14C-Cr uptake in the presence of DOX and/or B-GPA. The conditions noted are these: acute exposure during uptake; 2 μmol/L DOX, 100 μmol/L B-GPA; control = 1.00. It is filed as cell-based. The procedure: as §1, §2
Substrate in series [3]: CN(CC(=O)O)C(=N)N
The series is described as follows: 14C-Cr transport in HL-1 cells expressing the human CrT protein (dose-response, time course, kinetics). It is filed as cell-based. To be noted: other: HL-1 cells expressing human CrT, Michaelis-Menten, no DOX; pH 7.5.

What is called IC50 is the point on the concentration scale where inhibition reaches its midpoint. For orientation: Km means the substrate concentration at which the rate is half of its maximum.

As for `CN(CC(=O)O)C(=N)N` [Cr, Creatine], the “Cr transport Vmax” value on CrT [1] is given as 42.9±5.24 nmol/mg protein.

For the molecule `NC(N)=NCCC(=O)O` [β-GPA], the IC50 at Cr transport is 50 µM. Further, on CrT [2], the “Relative Vmax ± SEM” value amounted to 0.43 ± 0.11.

B1: human CrT (Homo sapiens) (protein)
chain: MAKKSAENGIYSVSGDEKKGPLIAPGPDGAPAKGDGPVGLGTPGGRLAVPPRETWTRQMDFIMSCVGFAVGLGNVWRFPYLCYKNGGGVFLIPYVLIALVGGIPIFFLEISLGQFMKAGSINVWNICPLFKGLGYASMVIVFYCNTYYIMVLAWGFYYLVKSFTTTLPWATCGHTWNTPDCVEIFRHEDCANASLANLTCDQLADRRSPVIEFWENKVLRLSGGLEVPGALNWEVTLCLLACWVLVYFCVWKGVKSTGKIVYFTATFPYVVLVVLLVRGVLLPGALDGIIYYLKPDWSKLGSPQVWIDAGTQIFFSYAIGLGALTALGSYNRFNNNCYKDAIILALINSGTSFFAGFVVFSILGFMAAEQGVHISKVAESGPGLAFIAYPRAVTLMPVAPLWAALFFFMLLLLGLDSQFVGVEGFITGLLDLLPASYYFRFQREISVALCCALCFVIDLSMVTDGGMYVFQLFDYYSASGTTLLWQAFWECVVVAWVYGADRFMDDIACMIGYRPCPWMKWCWSFFTPLVCMGIFIFNVVYYEPLVYNNTYVYPWWGEAMGWAFALSSMLCVPLHLLGCLLRAKGTMAERWQHLTQPIWGLHHLEYRAQDADVRGLTTLTPVSESSKVVVVESVM
notes: swapped with the corresponding fragment from the human full-length open reading frame; expressed in transfected cells; host or cells: HL-1 murine atrial cardiomyocyte line, transient transfection with pcDNA3.1(-) human CrT cDNA
On to B1, for which the Km in series [3] was 63.5 ± 2.37 µM.

(Values after US20120315654A1, “COMPOSITIONS AND METHODS FOR DETECTING CARDIOTOXICITY” (DUKE UNIVERSITY, priority 2011, published 2012).)
